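Five compound concentrations were applied to cells in 96-well plates for 48 hours; endpoints were derived by simple linear interpolation of the resulting dose-response curve. GI50: concentration for 50% inhibition of growth.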 Active and inactive are the calls of the source. Cut-off read from the data, not from the text of the source: active = GI50 up to about 1.1 µM and inactive = higher.
Columns and labels:
Assay in all cases: DTP human tumour cell line panel, 48 h
[1] = test system: SR
[2] = test system: MOLT-4
[3] = test system: MDA-MB-435
[4] = test system: HOP-92
[5] = test system: HL-60
[6] = test system: A498
[7] = test system: SNB-75
[8] = test system: KM12
[9] = test system: Malme-3M
[10] = test system: HCC 2998
[11] = test system: HOP-62
[12] = test system: EKVX
[13] = test system: DU-145
[14] = test system: MCF7
[15] = test system: PC-3
[16] = test system: 786-0
[17] = test system: IGROV-1
[18] = test system: SK-MEL-28
[19] = test system: M14
[20] = test system: T47D

| Compound | GI50 [1] | GI50 [2] | GI50 [3] | GI50 [4] | GI50 [5] | GI50 [6] | GI50 [7] | GI50 [8] | GI50 [9] | GI50 [10] | GI50 [11] | GI50 [12] | GI50 [13] | GI50 [14] | GI50 [15] | GI50 [16] | GI50 [17] | GI50 [18] | GI50 [19] | GI50 [20] |
| --- | --- | --- | --- | --- | --- | --- | --- | --- | --- | --- | --- | --- | --- | --- | --- | --- | --- | --- | --- | --- |
| CCCc1c(O)nc2ccccc2c1O | > 100 µM (inactive) | > 100 µM (inactive) | > 100 µM (inactive) | > 100 µM (inactive) | > 100 µM (inactive) | > 100 µM (inactive) | > 100 µM (inactive) | > 100 µM (inactive) | > 100 µM (inactive) | > 100 µM (inactive) | > 100 µM (inactive) | > 100 µM (inactive) | > 100 µM (inactive) | > 100 µM (inactive) | > 100 µM (inactive) | > 100 µM (inactive) | > 100 µM (inactive) | > 100 µM (inactive) |  |  |
| Cn1c(=O)cc(N2CCCC2)[nH]c1=O | > 100 µM (inactive) | > 100 µM (inactive) | > 100 µM (inactive) | > 100 µM (inactive) | > 100 µM (inactive) |  | > 100 µM (inactive) | > 100 µM (inactive) | > 100 µM (inactive) | > 100 µM (inactive) | > 100 µM (inactive) | > 100 µM (inactive) | > 100 µM (inactive) | > 100 µM (inactive) | > 100 µM (inactive) | > 100 µM (inactive) | > 100 µM (inactive) | > 100 µM (inactive) | > 100 µM (inactive) |  |
| c1ccc(-c2cc(-c3cccs3)c(-c3cccs3)s2)cc1 | 18.9 µM (inactive) | 21.2 µM (inactive) | 27.1 µM (inactive) | > 100 µM (inactive) | 25.5 µM (inactive) | 80.2 µM (inactive) | 20 µM (inactive) | 14.9 µM (inactive) |  | 25 µM (inactive) | > 100 µM (inactive) | 81.8 µM (inactive) | 64 µM (inactive) | 16.6 µM (inactive) |  | 50 µM (inactive) | > 100 µM (inactive) |  | 18.9 µM (inactive) | 4.5 µM (inactive) |
| O=C1/C(=C/c2cccs2)NC(=S)N1CN1CCOCC1 | > 100 µM (inactive) | > 100 µM (inactive) | > 100 µM (inactive) | > 100 µM (inactive) |  | 42.9 µM (inactive) | > 100 µM (inactive) | > 100 µM (inactive) |  |  | > 100 µM (inactive) | > 100 µM (inactive) | > 100 µM (inactive) | > 100 µM (inactive) | > 100 µM (inactive) | > 100 µM (inactive) | > 100 µM (inactive) | > 100 µM (inactive) | > 100 µM (inactive) |  |
| COc1cc(C2(C)SCCCS2)c(I)c(OC)c1OC | > 100 µM (inactive) | > 100 µM (inactive) |  | > 100 µM (inactive) | > 100 µM (inactive) | > 100 µM (inactive) | > 100 µM (inactive) | > 100 µM (inactive) | > 100 µM (inactive) | > 100 µM (inactive) | > 100 µM (inactive) | > 100 µM (inactive) |  |  |  | > 100 µM (inactive) | > 100 µM (inactive) | > 100 µM (inactive) | > 100 µM (inactive) |  |
| CS(=O)(=O)c1nc(-c2cc3c(c(S(C)(=O)=O)n2)CCC3)cc2c1CCC2 |  | > 100 µM (inactive) | > 100 µM (inactive) |  | > 100 µM (inactive) | > 100 µM (inactive) | 22.4 µM (inactive) | > 100 µM (inactive) |  | > 100 µM (inactive) | > 100 µM (inactive) | > 100 µM (inactive) | > 100 µM (inactive) |  | > 100 µM (inactive) | 82.6 µM (inactive) | 44.3 µM (inactive) | > 100 µM (inactive) | > 100 µM (inactive) |  |
| CCOC(=O)C1=C(NC(C)(C)C)OC/C1=N\NC(=O)Cc1ccccc1 | > 100 µM (inactive) | > 100 µM (inactive) |  | > 100 µM (inactive) | > 100 µM (inactive) | > 100 µM (inactive) | 27.9 µM (inactive) | > 100 µM (inactive) | > 100 µM (inactive) | > 100 µM (inactive) | > 100 µM (inactive) | > 100 µM (inactive) |  |  |  | > 100 µM (inactive) | > 100 µM (inactive) | > 100 µM (inactive) | > 100 µM (inactive) |  |
| CCOC(=O)C1=C(O)C(=O)c2ccsc2C1=O | > 100 µM (inactive) | > 100 µM (inactive) |  | > 100 µM (inactive) | > 100 µM (inactive) | > 100 µM (inactive) | > 100 µM (inactive) | > 100 µM (inactive) | > 100 µM (inactive) | > 100 µM (inactive) | > 100 µM (inactive) | > 100 µM (inactive) |  |  |  | > 100 µM (inactive) | > 100 µM (inactive) | > 100 µM (inactive) | > 100 µM (inactive) |  |
| O=c1[nH]nc(Nc2ccc(Cl)cc2)c2nnn(-c3ccc([N+](=O)[O-])cc3)c12 | 28.1 µM (inactive) | 8.63 µM (inactive) | 30.1 µM (inactive) | 14.5 µM (inactive) | 98.6 µM (inactive) |  | 39.8 µM (inactive) | 26.4 µM (inactive) | 26.1 µM (inactive) | 15.2 µM (inactive) | 27.4 µM (inactive) | 30.6 µM (inactive) | 12.1 µM (inactive) | 16.6 µM (inactive) | 18.3 µM (inactive) | 17.1 µM (inactive) | 31.6 µM (inactive) |  | 49.4 µM (inactive) |  |
| Cc1[nH]c2ccccc2c1C1=NO/C(=N\O)C(c2c(C)[nH]c3ccccc23)C1 (centres undefined) | 23.8 µM (inactive) | 21.4 µM (inactive) |  | 20.8 µM (inactive) | 20.5 µM (inactive) | 42.8 µM (inactive) | 43.2 µM (inactive) | 38 µM (inactive) | 53.2 µM (inactive) | 37.9 µM (inactive) | 21.7 µM (inactive) | 27.3 µM (inactive) |  |  |  | 40.7 µM (inactive) | 34.8 µM (inactive) | 52.5 µM (inactive) | 26.6 µM (inactive) |  |
| C=C(C)C1Cc2c(cc(OC)c3c(=O)c4cccc(O)c4oc23)O1 (centres undefined) | 36.1 µM (inactive) | > 100 µM (inactive) |  |  | 39.9 µM (inactive) |  | 16.3 µM (inactive) | 46.5 µM (inactive) | 25.2 µM (inactive) | 34.1 µM (inactive) | 18.6 µM (inactive) | > 100 µM (inactive) | 45.8 µM (inactive) | 0.024 µM (active) | 38.2 µM (inactive) | 18.9 µM (inactive) | 18.4 µM (inactive) | 25.5 µM (inactive) | 24.1 µM (inactive) | 16.6 µM (inactive) |
| O=C(Nc1ccc(Cl)cc1)NS(=O)(=O)c1coc2cc(F)ccc2c1=O | 95.9 µM (inactive) | > 100 µM (inactive) | 30.6 µM (inactive) |  |  |  | > 100 µM (inactive) | 92 µM (inactive) | > 100 µM (inactive) | 80.4 µM (inactive) | > 100 µM (inactive) | > 100 µM (inactive) |  | > 100 µM (inactive) | > 100 µM (inactive) | > 100 µM (inactive) | > 100 µM (inactive) | > 100 µM (inactive) | > 100 µM (inactive) | > 100 µM (inactive) |
| CC(=O)ONC(C(=O)C(C)(C)C)C(=O)C(C)(C)C |  | > 100 µM (inactive) |  | > 100 µM (inactive) | > 100 µM (inactive) | > 100 µM (inactive) | > 100 µM (inactive) | > 100 µM (inactive) | > 100 µM (inactive) | > 100 µM (inactive) | > 100 µM (inactive) | > 100 µM (inactive) | > 100 µM (inactive) | > 100 µM (inactive) | > 100 µM (inactive) | > 100 µM (inactive) | > 100 µM (inactive) | > 100 µM (inactive) | > 100 µM (inactive) | > 100 µM (inactive) |
| CCOc1ccccc1NC(=O)C(=O)C(/C(=N/N)C(=O)OC)c1nc2ccc([N+](=O)[O-])cc2nc1O (centres undefined) | > 100 µM (inactive) | 59.8 µM (inactive) | > 100 µM (inactive) | 46 µM (inactive) | > 100 µM (inactive) | > 100 µM (inactive) | 71.4 µM (inactive) | > 100 µM (inactive) | > 100 µM (inactive) | > 100 µM (inactive) | > 100 µM (inactive) | 97.5 µM (inactive) |  | > 100 µM (inactive) | > 100 µM (inactive) | > 100 µM (inactive) | 28.5 µM (inactive) | > 100 µM (inactive) | > 100 µM (inactive) | > 100 µM (inactive) |
| CCC(C)[C@H](NC(=O)N[C@H](C)c1ccccc1)C(=O)OC (some centres undefined) | > 100 µM (inactive) | > 100 µM (inactive) | > 100 µM (inactive) | > 100 µM (inactive) | > 100 µM (inactive) | > 100 µM (inactive) | > 100 µM (inactive) | > 100 µM (inactive) |  | > 100 µM (inactive) | > 100 µM (inactive) | > 100 µM (inactive) | > 100 µM (inactive) | > 100 µM (inactive) | > 100 µM (inactive) | > 100 µM (inactive) | > 100 µM (inactive) | > 100 µM (inactive) | > 100 µM (inactive) |  |
| CC(=O)OC1CC2C(C)(C)C(=O)C=C[C@]2(C)C2CCC3(C)C(c4ccoc4)C(=O)C4OC43[C@]12C (some centres undefined) | 11.5 µM (inactive) | 13.4 µM (inactive) |  | 15.8 µM (inactive) | 12.4 µM (inactive) | 17.6 µM (inactive) | 22.4 µM (inactive) | 15.1 µM (inactive) | 15.2 µM (inactive) | 16.7 µM (inactive) | 27.8 µM (inactive) | 40.5 µM (inactive) |  |  |  | 25.9 µM (inactive) | 21 µM (inactive) | 16.9 µM (inactive) | 17.3 µM (inactive) |  |
